For data set [1], the system named is PC3 prostate cancer cells.
In another data set the test system is LNCaP cells. In words: Cytotoxicity of FdUMP[10], laboratory studies and NCI 60 cell line screen. It counts as cell-based, human.
For another data set, the system named is DU145 PC cells. The data set is described as above. It counts as cell-based.
Another data set has as its system colon cancer cells. Description: Uptake of FdUMP[10] multimer in other cancer cells. Format: cell-based. The note with it: other types of cancer cells (e.g. colon cancer).
A further data set has as its system PC3 cells. Description: Cytotoxicity of FdUMP[10], laboratory studies and NCI 60 cell line screen. It counts as cell-based, human.
For data set [2], the system named is prostate cancer cells.
Data set [3] has as its system prostate cancer cells. This is another data set of the same source.
Data set [4] deals with DU145 prostate cancer cells.
Data set [5] has as its system PC cells and normal prostatic epithelial cells. Description: Trypan blue exclusion assays. It counts as cell-based, human. The procedure: The cytotoxicity of the candidate modified aptamers is also evaluated with regard to prostate cells that have been obtained from normal prostate tissue derived from radical prostatectomies. A procedure for establishing primary human epithelial cell cultures from the disease-free regions of the tissue (based on histology) has been described (Peehl et al., In Vitro Cell Dev. Biol. 22: 90 (1986); Peehl et al., In Vitro Cell Dev. Biol. 24: 530-536 (1988); Barreto et al., Cancer Epidemiol. Biomarkers Prey. 9: 265-270 (2000). The cultures are grown in MCDB 105 medium (Sigma, St. Louis, Mo.) that has been supplemented with growth factors and hormones as described previously (Peehl et al., In Vitro Cell Dev Biol 22: 90 (1986)). Trypan blue exclusion is used as a marker of viable cells. The data are analyzed to identify those candidate modified aptamers sequences that are highly efficient at killing PC cells that express xPSM, but that are not cytotoxic towards normal prostate cells. Candidate modified aptamers that display the greatest differential cytotoxicity are further developed as drugs for the treatment of human PC.
(but not 5FU) is currently under investigation.

In data set [6] the target is T1, extracellular domain of PSMA (xPSM) (Homo sapiens, UniProt Q04609).
T1 construct: express the 706 amino acids comprising the extracellular domain of PSMA from Sf-9 (insect) cells using baculovirus; made in house; host or cells: Sf-9 insect cells, baculovirus (pBacGus3 vector); cDNA from LNCaP cells
T1 sequence (Q04609 44-750 limits assumed): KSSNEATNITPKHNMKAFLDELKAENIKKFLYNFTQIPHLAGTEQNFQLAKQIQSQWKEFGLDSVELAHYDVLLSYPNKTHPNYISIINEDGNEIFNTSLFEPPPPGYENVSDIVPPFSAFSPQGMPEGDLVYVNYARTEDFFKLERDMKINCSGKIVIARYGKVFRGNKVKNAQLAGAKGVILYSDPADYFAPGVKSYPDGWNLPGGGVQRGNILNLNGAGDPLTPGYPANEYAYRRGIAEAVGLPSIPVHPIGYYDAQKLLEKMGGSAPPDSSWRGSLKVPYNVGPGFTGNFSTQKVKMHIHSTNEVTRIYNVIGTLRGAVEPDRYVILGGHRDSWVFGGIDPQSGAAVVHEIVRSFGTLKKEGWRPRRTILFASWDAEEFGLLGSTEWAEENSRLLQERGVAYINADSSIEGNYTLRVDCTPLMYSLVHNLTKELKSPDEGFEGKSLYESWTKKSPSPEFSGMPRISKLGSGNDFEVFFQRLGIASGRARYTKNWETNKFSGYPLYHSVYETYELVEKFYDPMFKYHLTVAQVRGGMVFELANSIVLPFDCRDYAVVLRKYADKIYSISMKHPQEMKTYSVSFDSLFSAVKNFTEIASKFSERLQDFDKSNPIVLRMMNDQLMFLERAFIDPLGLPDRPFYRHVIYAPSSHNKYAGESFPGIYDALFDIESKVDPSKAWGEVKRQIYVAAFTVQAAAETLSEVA
The note with it: cited from earlier work.

Data set [7] in a line: UV thermal melt (hyperchromicity). It counts as physicochemical. As to the method:
The structural characteristics of the parent aptamer and modified aptamers were determined using circular dichroism (CD) spectroscopy and ultraviolet (UV) hyperchromicity measurements. The data for the CD spectroscopy are shown in FIGS. 4A (modified aptamer) and 4B (parent aptamer). The circular dichroism curve acquired before thermal melting is in blue and that obtained post-melt is green. A maximum positive ellipticity is observed at 270 nm consistent with a highly folded structure, probably consisting of A-form helices. The circular dichroism spectra for the modified aptamers are indistinguishable from circular dichroism spectra for the parent aptamer. The UV thermal melt data is shown in FIGS. 4C (modified aptamer) and 4D (parent aptamer). The melting temperature for parent aptamer and the modified aptamers is about 55° C.

FdUMP[10]: the tolerability in vivo result is “very well-tolerated”. The “cytotoxicity relative to monomeric fluoropyrimidines (5FU, FdU, FdUMP)” value in data set [1] is “substantially more cytotoxic”. Moreover, in the data set with LNCaP cells, the “sensitivity of LNCaP cells” value is listed as “highly sensitive”. Besides, the “times more potent than 5FU” value in the data set on DU145 PC cells (DU145 PC cells) was 1,585 time. In the data set on DU145 PC cells (DU145 cells, GI50 value from the NCI 60 cell line screen, read-out: IC50 (the source's name)), the GI50 came out at 5.01 nM. Further, the “uptake of multimer relative to prostate cancer cells” value in the data set on colon cancer cells was “less efficient”. Also, in the data set with PC3 cells, the “sensitivity of PC3 cells” value is given as “highly sensitive”. In addition, the “times more potent than 5FU” value with PC3 cells (PC3 cells) is 631 times. Also, in the data set on prostate cancer cells [2], the “cytotoxicity relative to 5FU or FdU” value is “substantially more cytotoxic” and the “drug concentrations at which cytotoxic towards prostate cancer cells” value fell in the range of 10 to 100 nM. Also, the “effect of phosphatase or nucleotidase inhibitor on cytotoxicity” value with prostate cancer cells [3] is “Neither inhibitor substantially reduced the cytotoxicity”. For the same substance, the “uptake in multimeric form” value in the data set with prostate cancer cells [3] (prostate cancer cells) was “efficiently take up”. Moreover, the “cytotoxicity relative to monomeric fluoropyrimidines (5FU, FdU, FdUMP)” value in [4] is “substantially more cytotoxic”. Further, in data set [5], the “differential sensitivity between PC cells and normal prostatic epithelial cells” value is “large differential sensitivity”.

In the case of “5′rGGGAGGACGAUGCGGAUCAGCCAUGUUUACGUCAC UCCUUGUCAAUCCUCAUCGGC-3′ (GGGAGGACGAUGCGGAUCAGCCAUGUUUACGUCACUCCUUGUCAAUCCUCAUCGGC; RNA, backbone not given here) [A10-3]”, the “binding affinity for xPSM” value in [6] is “high affinity”. The “stability of folded structure” value in data set [7] (37° C.) is “stable at 37 °C”. Besides, in data set [7] (UV thermal melt), the melting temperature result was “about 55 °C”.

Source of the values: patent publication US8940885B2, “Cytotoxic nucleotides for targeted therapeutics” (Wake Forest University Health Sciences, priority 2006, dated 2015).
